From patent publication US3979513A, “1'-Substituted-9,10-dihydroanthracene-9-spiro-4'-piperidine derivatives” (priority 1974, dated 1976)
Where two headings read alike, the source gives them in different places.

Experiment: acute toxicity (LD50) in mice
Settings: mouse, in vivo
Procedure: The corresponding intravenous LD50 is 40 mg./kg. Other LD50 values for compounds of the invention when dosed intravenously are as follows: […]

[1] = iv, dosed intravenously (table 1), read-out: LD50

SMILES	LD50 (mice, intravenous, read-out: intravenous LD50) [mg/kg]	LD50 (mice, oral, read-out: oral LD50) [mg/kg]	LD50 [1] [mg/kg]
CN1CCC2(CC1)c1ccccc1C(O)c1ccccc12 [10-hydroxy-1'-methyl-9,10-dihydroanthracene-9-spiro-4'-piperidine]	40	> 250	–
Cc1ccc2c(c1)C1(CCN(C)CC1)c1ccccc1C2O (centres unmarked) [Me 2-Me H OH H, 1',2-dimethyl-10-hydroxy-9,10-dihydroanthracene-9-spiro-4'-piperidine]	–	–	37
CC(=O)Oc1cccc2c1Cc1ccccc1C21CCN(C)CC1 [Me 4-OAc H H H, 4-acetoxy-1'-methyl-9,10-dihydroanthracene-9-spiro-4'-piperidine]	–	–	43
CN1CCC2(CC1)c1ccccc1C(C)(O)c1c(O)cccc12 (centres unmarked) [Me 4-OH H OH Me, 4,10-dihydroxy-1',10-dimethyl-9,10-dihydroanthracene-9-spiro-4'-piperidine]	–	–	25
